# Key:
# [1] = test system: malignant hematological cell lines that lack STAT3 activation; assay: Cell viability of hematologic cancer cells lacking STAT3 activation; type: cell-based; conditions: 72 hours
# Procedure: Western blotting was performed as previously described (Battle T E, Arbiser J, & Frank D A (2005) The natural product honokiol induces caspase dependent apoptosis in B-cell chronic lymphocytic leukemia (B-CLL) cells. Blood 106(2):690-697). Antibodies to phospho-MAPK (9101), total MAPK (9102), phospho-Y705 STAT3 (9131), phospho-S6 (2215), total S6 (2217), phospho-4E-BP1 (9451), total 4E-BP1 (9644), total RSK (9355), phospho-S6K (9234, 85 used at 1:5000), total S6K (2708), phospho-eIF2α (9721, used at 1:1000), total eIF2α (5324), ATF4 (11815, used at 1:1000), PDGFRβ (3169), IGF1Rβ (9750), EGFR (2232), and HER2 (2242) were from Cell Signaling Technology. Phospho-RSK antibody was from R&D (AF889). Antibodies to total STAT3 (sc-482) and gp130 (sc-656, used at 1:1000) were from Santa Cruz Biotechnology. Phospho-S727 STAT3 antibody was described previously (229). REDD1 antibody was from Proteintech (10638-1-AP, used at 1:1000). Antibody recognizing full-length and cleaved ATF6 was from Abcam (ab122897, used at 1:1000). Antibodies to tubulin (T5168) and beta actin (A5316) were from Sigma. All antibodies were used at 1:10000 dilution for western blot unless otherwise noted. […] Cell viability was measured as ATP-dependent luminescence by Cell Titer Glo (Promega). […]
# JAK family members = assay: In vitro kinase assays (Invitrogen SelectScreen); type: biochemical; conditions: atovaquone 15 μM
# Procedure: FIG. 15 contains a bar graph quantifying kinase activity (expressed as percent of vehicle) for the indicated kinases (JAK1, JAK2, JAK3, TYK2, SRC) determined using in vitro kinase assays (Invitrogen SelectScreen) and following treatment with atovaquone (AQ) (15 μM) or JAK inhibitor 1 (0.5 μM).
# To understand how atovaquone inhibits STAT3 phosphorylation, the possibility that atovaquone decreases the kinase activity of JAKs, which are responsible for STAT3 activation in the systems previously tested was considered. To assess kinase activity, the extent of kinase auto-phosphorylation, which provides a cellular readout of kinase activity, was first analyzed. […] In particular, U266 cells were treated with atovaquone (15 μM) or JAK inhibitor 1(1 μM) for 1 hour, followed by lysis and immunoprecipitation to TYK2. The blot was probed with a pan-phospho-tyrosine antibody (FIG. 14A). Due to technical limitations, tyrosine phosphorylation of other JAK family members was not detected in U266 cells. Next, HEL cells were treated with atovaquone (20 μM) or JAK inhibitor 1 (1 μM) for 6 hours, followed by lysis and immunoprecipitation to JAK2, which was selected because these cells harbor mutant JAK2-V617F. The blot was probed with a pan-phospho-tyrosine antibody, as well as antibodies specific to phospho-Tyr570 and phospho-Tyr1007/1008 (FIG. 14B). […]
smiles,measurement,setting,value
"O=C1C(O)=C([C@H]2CC[C@H](c3ccc(Cl)cc3)CC2)C(=O)c2ccccc21 [atovaquone, trans-2-[4-(4-chlorophenyl)cyclohexyl]-3-hydroxy-1,4-naphthalenedione]",viability of malignant hematological cell lines that lack STAT3 activation,[1],reduced the viability
same,in vitro kinase activity,JAK family members,no inhibition

# From patent US10130590B2, “Methods of treating cancer with atovaquone-related compounds” (DANA-FARBER CANCER INSTITUTE, INC., priority 2013, dated 2018)
